Reference: patent US20100179205A1, “Composition for Enhanced Antiparasitic Activity” (Intervet International B.V., priority 2006, published 2010)

Test system: Rhipicephalus sanguineus nymphs
Assay: Efficacy against Rhipicephalus sanguineus on infested guinea pigs, topical bath treatment
Type: in vivo
Settings: for average number of detached ticks per animal (detachment effect): bath treatment, 24 hours after treatment, guinea pigs infested with 100 nymphs; for overall acaricidal efficacy against R. sanguineus-nymphs: compared to the control group; for average number of engorged ticks per animal: engorged ticks dropping from d4 to d8; for average number of dead ticks after detachment: mortality assessed 24 hours after detachment
Method: Efficacy against Rhipicephalus sanguineus
Guinea pigs were infested with 100 nymphs of Rhipicephalus sanguineus (d0). Guinea pigs (n=3) were treated topically (bath treatment) with atipamezol (7.8 ppm), amitraz (2.0 ppm; 3.9 ppm) and two combinations of both (7.8 ppm atipamezol+2.0 ppm amitraz; 7.8 ppm atipamezol+3.9 ppm amitraz), respectively (d1). The control group remained untreated.
The number of detached ticks was assessed 1, 3, 6 and 24 hours after treatment (detachment effect).
The mortality of detached ticks was assessed 24 hours after detachment.
The average number of engorged ticks dropping per animal from d4 to d8 was assessed to determine the overall acaricidal efficacy compared to the control group.

Row | SMILES | average number of detached ticks per animal (detachment effect) (2.0 ppm amitraz) | overall acaricidal efficacy against R. sanguineus-nymphs (2.0 ppm amitraz) | average number of engorged ticks per animal (2.0 ppm amitraz) | average number of dead ticks after detachment (2.0 ppm amitraz) | average number of detached ticks per animal (detachment effect) (3.9 ppm amitraz) | overall acaricidal efficacy against R. sanguineus-nymphs (3.9 ppm amitraz) | average number of engorged ticks per animal (3.9 ppm amitraz) | average number of dead ticks after detachment (3.9 ppm amitraz) | average number of detached ticks per animal (detachment effect) (7.8 ppm atipamezol) | overall acaricidal efficacy against R. sanguineus-nymphs (7.8 ppm atipamezol) | average number of engorged ticks per animal (7.8 ppm atipamezol) | average number of dead ticks after detachment (7.8 ppm atipamezol) | acaricidal/insecticidal effect (in words) (atipamezole alone)
1 | Cc1ccc(N=CN(C)C=Nc2ccc(C)cc2C)c(C)c1 [amitraz, 1,5-di-(2,4-dimethylphenyl)-3-methyl-1,3,5-triazapenta-1,4-diene] | 29.7 | 84% | 8.7 | 24.3 | 43.7 | 100% | 0 | 39.7 | – | – | – | – | –
2 | CCC1(c2cnc[nH]2)Cc2ccccc2C1 [atipamezol, 4(5)-(2,3-dihydro-2-ethyl-1H-inden-2-yl)imidazole] | – | – | – | – | – | – | – | – | 2.0 | 63% | 20.7 | 1.3 | does not show an acaricidal/insecticidal effect
